{
  "source": "patent US20200375929A1",
  "about": "“METHODS AND COMPOSITIONS FOR THE TREATMENT OF DISEASES ASSOCIATED WITH CANCER, INFLAMMATION, OR IMMUNE RESPONSE” (Washington University, priority 2017, published 2020)",
  "key": {"IκBζ [1]": {"tested_on": "IκBζ", "assay": "LPS-induced Ikb-ζ protein induction in BMDMs (western blot)", "type": "cell-based, mouse", "protocol": "BMDM were prepared from 6- to 12-week-old mice as described 1 and cultured in RMPI-1640 medium supplemented with 10% fetal bovine serum (FBS), 2 mM L-glutamine, and 100 U/mL penicillin-streptomycin and mouse recombinant M-CSF ([…], Peprotech). For experiments, cells were seeded at concentration 10^6 cells/mL in tissue culture plates of various formats. The cells were treated with DI (250 μM (unless stated otherwise), cat #592498, Sigma), DMF (50 μM (unless stated otherwise), cat #242926, Sigma), 3-(ethoxycarbonyl)but-3-enoic acid (3MI, 5 μM, Aris Pharmaceuticals Inc.), 4-ethoxy-2-methylene-4-oxobutanoic acid (MI, Aris Pharmaceuticals Inc.) for 12 h and activated with lipopolysaccharide (LPS; 100 ng/mL; E. coli 0111:B4, Sigma) for 1 h or as indicated. In some experiments cells were stimulated with combination of LPS (20 ng/mL) and IFN-γ (50 ng/mL; Peprotech). In some experiments cells were treated with α-tocopherol (AT, 10 μM; Sigma), MitoTEMPO (MT, 500 μM; Sigma), N-acetylcysteine (NAC, 1 mM, Sigma), ethylester of GSH (EtGSH; 1 mM, Santa Cruz) or buthionene sulfoximine (BSO, 500 μM, Sigma) alone or in combination with DI for 12 h. In some experiments BMDMs were treated with DI for 12 h and bafilomycin A (BafA, 100 nM, Sigma) or MG132 (10 μM, Selleckchem) were added 30 min before subsequent LPS stimulation.\n(§1) Cells were lysed in RIPA Lysis Buffer System (Santa Cruz) and heat-denatured at 95° C. for 5 min in reducing sample buffer (BioRad). Proteins were separated on 4%-20% polyacrylamide gradient gels (BioRad) and transferred onto 0.45 μm pore size PVDF membranes (Millipore). Non-specific binding was blocked with 5% skim milk (or 5% BSA when phospho-proteins were analyzed), and membranes were probed with primary antibodies specific to Nrf2 (#12721), HO-1 (#70081), IκBζ (mouse specific, #93726), IκBζ(#9244), ATF3 (#D2Y5W), IRAK1 (#4504; sensitivity of IRAK1 detection diminishes upon IRAK1 K63 ubiquitination), phospho-IKK (Ser176/180, #2697), p62/SQSTM1 (#5114), phospho-eIF2α (Ser51, #9721), eIF2α (#5324) from Cell Signaling; GAPDH (sc-25778), IκBα (sc-1643), ATF3 (sc-188), SDHA (sc-166909) from Santa Cruz; NQO1 (ab28947) from Abeam, followed by incubation with anti-rabbit-HRP (1:10,000; sc-2030) or anti-mouse-HRP (1:10,000; sc-2031) from Santa Cruz and Clarity western ECL substrate (Bio-Rad). Membranes were exposed to X-Ray films (Research Products International Corp.) and developed using SRX-101A film processor (Konica Minolta). GAPDH run on the same blot was used as loading control. After scanning of original films image brightness of some blots was adjusted and bands were cropped using ImageJ. Densitometry was performed using ImageJ."}, "BMDMs / BV2 cells": {"tested_on": "BMDMs / BV2 cells", "assay": "Intracellular ROS by flow cytometry", "type": "cell-based, mouse", "details": "DI 250 μM", "protocol": "For ROS measurements, cells were treated with DI (250 μM), loaded with 10 μM CM-H2DCFDA (Invitrogen) at RT for 30 min in Hank's balanced salt solution (HBSS). After incubation, cell were rinsed with warm HBSS, harvested and directly analyzed. Mean fluorescent intensity (MFI) of living cells is shown. For Nfkbiz 3′UTR reporter analysis GFP signal was determined in live cells. For analysis of cell viability cells were stained with propidium iodide (1 μg/mL) and percentage of negative cells was plotted. Cells were acquired on CantoII or LSRII flow cytometers (Becton Dickinson), and data were analyzed with FlowJo v.9.5.2 software (Tree Star). For gating strategy see e.g., FIG. 25."}, "IκBζ [2]": {"tested_on": "IκBζ", "assay": "Ikb-ζ protein in LPS-stimulated human monocytes (western blot)", "type": "cell-based", "details": "human monocytes, DI 12 h, LPS 100 ng/ml", "protocol": "as §1, with “Membranes were exposed to X-Ray films (Research Products International Corp.) and developed using SRX-101A film processor (Konica Minolta). GAPDH run on the same blot was used as loading control. After scanning of original films image brightness of some blots was adjusted and bands were cropped using ImageJ. Densitometry was performed using ImageJ.” left out\nBlood from healthy donors was acquired from LRS chambers supplied by the Mississippi Valley Regional Blood Center. […] After extensive washes to allow removal of non-adherent cells, monocytes (>95% purity) were harvested, counted and 5×10^5 cells were plated per well in 24-well plates. […]"}, "Regnase-1": {"tested_on": "Regnase-1", "assay": "Regnase-1 protein levels in BMDMs (western blot)", "type": "cell-based, mouse", "details": "unstimulated macrophages, DI", "protocol": "BMDM were prepared from 6- to 12-week-old mice as described 1 and cultured in RMPI-1640 medium supplemented with 10% fetal bovine serum (FBS), 2 mM L-glutamine, and 100 U/mL penicillin-streptomycin and mouse recombinant M-CSF ([…], Peprotech). For experiments, cells were seeded at concentration 10^6 cells/mL in tissue culture plates of various formats. […]\nCells were lysed in RIPA Lysis Buffer System (Santa Cruz) and heat-denatured at 95° C. for 5 min in reducing sample buffer (BioRad). […] Non-specific binding was blocked with 5% skim milk (or 5% BSA when phospho-proteins were analyzed), and membranes were probed with primary antibodies specific to Nrf2 (#12721), HO-1 (#70081), IκBζ (mouse specific, #93726), IκBζ(#9244), ATF3 (#D2Y5W), IRAK1 (#4504; sensitivity of IRAK1 detection diminishes upon IRAK1 K63 ubiquitination), phospho-IKK (Ser176/180, #2697), p62/SQSTM1 (#5114), phospho-eIF2α (Ser51, #9721), eIF2α (#5324) from Cell Signaling; GAPDH (sc-25778), IκBα (sc-1643), ATF3 (sc-188), SDHA (sc-166909) from Santa Cruz; NQO1 (ab28947) from Abeam, followed by incubation with anti-rabbit-HRP (1:10,000; sc-2030) or anti-mouse-HRP (1:10,000; sc-2031) from Santa Cruz and Clarity western ECL substrate (Bio-Rad). […]"}},
  "note": "Entries after “also recorded” stand apart in the source; their conditions may differ.",
  "data": [
    {"smiles": "C=C(CC(=O)OC)C(=O)OC", "note": "[DI, dimethyl itaconate]", "values": [
      {"measurement": "IκBζ protein levels upon DI treatment in Atf3−/− cells", "setting": "IκBζ [1]; Atf3−/− BMDMs, DI, LPS", "value": "restored IκBζ protein levels"},
      {"measurement": "LPS-induced Ikb-ζ induction, protein level", "setting": "IκBζ [1]; BMDMs treated with compound 12 h, then LPS 100 ng/ml", "value": "almost complete inhibition; also recorded: completely abolished; also recorded: inhibited IκBζ induction"},
      {"measurement": "effect on IκBζ/IL-6 in combination with BSO", "setting": "IκBζ [1]; BMDMs, compound plus BSO 500 μM, LPS", "value": "enhanced the inhibitory effect"},
      {"measurement": "DI inhibition of Ikb-ζ induction in Nrf2-deficient cells", "setting": "IκBζ [1]; Nrf2 KO BMDMs, DI 250 μM 12 h, LPS", "value": "did not affect inhibition of Ikb-ζ induction; also recorded: did not alleviate"},
      {"measurement": "IκBζ inhibition by DI in p62/SQSTM1- or HO-1-lacking macrophages", "setting": "IκBζ [1]; macrophages genetically lacking p62/SQSTM1 or HO-1", "value": "did not rescue IκBζ inhibition by DI"},
      {"measurement": "intracellular ROS production", "setting": "BMDMs / BV2 cells", "value": "increased intracellular ROS; also recorded: increase in ROS generation"},
      {"measurement": "LPS-induced Ikb-ζ protein levels", "setting": "IκBζ [2]", "value": "decreased Ikb-ζ protein levels; also recorded: completely abolished"},
      {"measurement": "Regnase-1 protein", "setting": "Regnase-1", "value": "up-regulated Regnase-1"}
    ]}
  ]
}
